Read-outs that look alike come from different tables or passages of the source.
Columns and labels:
[1] = test system: Panel B env SC422661, clone B (SVPB8); type: cell-based; conditions: TZM-bl, read-out: IC50 (μM) ± S.D., antiviral activity against HIV-1 envelope pseudoviruses
[2] = test system: primary HIV-1 isolate 93MW959 (clade C, R5); assay: Neutralization assay in PBMC (p24 ELISA); conditions: read-out: IC50 (μM) ± S.D., inhibitory activity on infection, 93MW959, subtype C
Description: (§2) The inhibitory activity of small molecules on infection by primary HIV-1 isolates was determined. PBMCs were isolated from the blood of healthy donors at the New York Blood Center by standard density-gradient centrifugation using Histopaque-1077 (Sigma-Aldrich). The cells were cultured at 37° C. for 2 h. Non-adherent cells were collected and resuspended at 5×10^6 cells/ml in RPMI-1640 medium containing 10% (v/v) fetal bovine serum, 5 μg/ml of phytohemagglutinin, and 100 U/ml of IL-2 (Sigma-Aldrich), followed by incubation at 37° C. for three days.

[3] = test system: primary HIV-1 isolate 92US657 (subtype B, R5); assay: Neutralization assay in PBMC (p24 ELISA); conditions: read-out: IC50 (μM) ± S.D., inhibitory activity on infection; 92US657, subtype B, PBMC, R5, primary isolate
Description: PBMCs were isolated from the blood of healthy donors at the New York Blood Center by standard density-gradient centrifugation using Histopaque-1077 (Sigma-Aldrich). The cells were cultured at 37° C. for 2 h. Non-adherent cells were collected and resuspended at 5×10^6 cells/ml in RPMI-1640 medium containing 10% (v/v) fetal bovine serum, 5 μg/ml of phytohemagglutinin, and 100 U/ml of IL-2 (Sigma-Aldrich), followed by incubation at 37° C. for three days.

TZM-bl cells = assay: Cytotoxicity in TZM-bl cells (XTT); type: cell-based
How it was run: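 TZM-bl cells (10^5/ml) combined with equal volumes of compound at graded concentrations and incubated 3 days at 37° C. Viability measured colorimetrically by XTT tetrazolium dye reduction.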

[4] = test system: primary HIV-1 isolate 93IN101 (subtype C, R5); assay: Neutralization assay in PBMC (p24 ELISA); conditions: read-out: IC50 (μM) ± S.D., inhibitory activity on infection; 93IN101, subtype C, PBMC, R5, primary isolate
Description: as §2

[5] = test system: Panel C env ZM-249M.PL1, SVPC10; type: cell-based; conditions: TZM-bl, read-out: IC50 (μM) ± S.D., antiviral activity against HIV-1 envelope pseudoviruses
[6] = test system: pNL4-3 gp41 (36G) V38E, N42S (fusion resistant isolate); type: cell-based, HIV-1; conditions: subtype B, MT-2, X4, fusion resistant isolate, read-out: IC50 (μM) ± S.D., inhibitory activity on infection
MT-2 cells = assay: Cytotoxicity in MT-2 cells (XTT); type: cell-based
How it was run: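 XTT viability read-out: MT-2 cells (10^5 cells/ml) incubated with graded compound concentrations four days at 37° C; PBMC at 5×10^5 cells/ml, measured after seven days. CC50 derived from percentage cytotoxicity.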

gp120-CD4 interaction = gp120-CD4 interaction (Human immunodeficiency virus type 1 group M subtype B, UniProt P03375); type: binding; conditions: FIG. 7
[7] = test system: Panel C env Du172, clone 17 (SVPC4); type: cell-based; conditions: TZM-bl, read-out: IC50 (μM) ± S.D., antiviral activity against HIV-1 envelope pseudoviruses
[8] = test system: Panel C env ZM-233M.PB6, SVPC9; type: cell-based; conditions: TZM-bl, read-out: IC50 (μM) ± S.D., antiviral activity against HIV-1 envelope pseudoviruses
[9] = test system: Panel C env Du156, clone 12 (SVPC3); type: cell-based; conditions: TZM-bl, read-out: IC50 (μM) ± S.D., antiviral activity against HIV-1 envelope pseudoviruses
HIV-1MN gp120 and sCD4 = target: T1, HIV-1MN gp120 and sCD4 (Human immunodeficiency virus type 1 group M subtype B, UniProt P05877); assay: biochemical; type: binding; conditions: captured ELISA, sCD4 0.25 μg/ml; read-out: IC50 (μM ± SD), interaction HIV-1MN gp120 and sCD4
T1 construct: recombinant gp120 from HIV-1IIIB and HIV-1MN
Description: (§1) The compounds were incubated at graded concentrations with sCD4 (0.25 μg/ml) in the wells of polystyrene plates containing recombinant gp120, which was captured by coating the plates with a sheep anti-gp120 antibody D7324.

HIV-1IIIB gp120 and sCD4 = target: T2, HIV-1IIIB gp120 and sCD4 (Human immunodeficiency virus type 1 group M subtype B, UniProt P03375); assay: biochemical; type: binding; conditions: captured ELISA, sCD4 0.25 μg/ml; read-out: IC50 (μM ± SD), interaction HIV-1IIIB gp120 and sCD4
T2 construct: recombinant gp120 from HIV-1IIIB and HIV-1MN
Description: as §1

CD4 = CD4 (Homo sapiens, UniProt P01730); assay: Surface plasmon resonance (SPR), ligand CD4; type: binding; conditions: SPR
[10] = test system: CD4-dependent virus (ADA); type: cell-based; conditions: ADA in Cf2Th-CD4+-CCR5+ target cells, FIG. 5; read-out: IC50, inhibition of the CD4-dependent virus
gp120 = gp120 (Human immunodeficiency virus type 1 group M subtype B, UniProt P03375); assay: biochemical; type: binding, HIV-1; conditions: SPR, ligand gp120
[11] = TZM-bl cells, XTT, 3 days, read-out: TZM-bl cells CC50 (μM ± SD)
[12] = at the dose given as CC50 bound
[13] = MT-2 cells, XTT, four days, read-out: MT-2 Cells CC50

## Cc1ccc(NC(=O)C(=O)NC(c2nc(C)c(CO)s2)C2CCCCN2)cc1F.Cl (centres unmarked) [Compound 28, N^1-(3-fluoro-4-methylphenyl)-N^2-((5-(hydroxymethyl)-4-methylthiazol-2-yl)(piperidin-2-yl)methyl)oxalamide.HCl]
[1]
  IC50: 2.5 ± 0.3 µM
[2]
  IC50: > 42.5 µM
[3]
  IC50: 12.3 ± 1.3 µM
TZM-bl cells; [11]
  CC50: > 88 µM
TZM-bl cells; [12]
  % toxicity at that dose (number in parenthesis), TZM-bl cells: 0%
[4]
  IC50: > 85 µM
[5]
  IC50: > 42 µM
[6]
  IC50: 4.6 ± 0.4 µM
MT-2 cells; MT-2 cells, XTT, four days, listed as NBD-11008, read-out: MT-2 Cells CC50
  CC50: ~85 µM
MT-2 cells; [13]
  CC50: > 88 µM
MT-2 cells; [12]
  % toxicity at that dose (number in parenthesis), MT-2 cells: 30%

## Cc1nc(C(NC(=O)C(=O)Nc2ccc(Cl)cc2)C2CCCCN2)sc1CO.Cl (centres unmarked) [Compound 6, N^1-(4-chlorophenyl)-N^2-((5-(hydroxymethyl)-4-methylthiazol-2-yl)(piperidin-2-yl)methyl)oxalamide.HCl]
gp120-CD4 interaction
  inhibition of the gp120-CD4 interaction: inhibit gp120-CD4 interaction in a dose dependent manner
[1]
  IC50: 2.3 ± 0.2 µM
[2]
  IC50: > 43.5 µM
[3]
  IC50: 8.6 ± 0.9 µM
[7]
  IC50: 3 ± 0.38 µM
TZM-bl cells
  % toxicity at that dose (number in parenthesis), TZM-bl cells: 10%
  CC50: > 22 µM
[4]
  IC50: > 87 µM
[8]
  IC50: 5.6 ± 1.3 µM
[9]
  IC50: 4.6 ± 0.13 µM
[5]
  IC50: 1.5 ± 0.6 µM
[6]
  IC50: 5.8 ± 0.3 µM
MT-2 cells
  % toxicity at that dose (number in parenthesis), MT-2 cells: 40%
  CC50: > 108 µM

## CC1(C)CC(NC(=O)C(=O)Nc2ccc(Cl)cc2)CC(C)(C)N1 [NBD-556, reference compound]
gp120-CD4 interaction
  inhibition of the gp120-CD4 interaction: in a dose dependent manner
[2]
  IC50: 57.2 ± 8.7 µM
HIV-1MN gp120 and sCD4
  IC50: 5.66 ± 0.8 µM
HIV-1IIIB gp120 and sCD4
  IC50: 2.11 µM
CD4
  binding to CD4: not to CD4
[3]
  IC50: 48 ± 1.65 µM
[7]
  IC50: 4.2 ± 0.23 µM
TZM-bl cells; [11]
  CC50: > 60 µM
TZM-bl cells; [12]
  % toxicity at that dose (number in parenthesis), TZM-bl cells: 10%
[10]
  IC50: 22.6 µM
[8]
  IC50: 4.9 ± 1.13 µM
[5]
  IC50: 6.1 ± 1.7 µM
gp120
  Rmax (RU): 6.99 RU
[6]
  IC50: 11 ± 0.9 µM
MT-2 cells; MT-2 cells, XTT, four days, listed as 1, read-out: MT-2 Cells CC50
  CC50: ~150 µM
MT-2 cells; [13]
  CC50: 280 µM

## Cc1nc(C(NC(=O)C(=O)Nc2ccc(Cl)c(F)c2)C2CCCCN2)sc1CCO.Cl (centres unmarked) [Compound 39, N^1-(4-chloro-3-fluorophenyl)-N^2-((5-(2-hydroxyethyl)-4-methylthiazol-2-yl)(piperidin-2-yl)methyl)oxalamide.HCl]
[1]
  IC50: 1.3 ± 0.1 µM
[3]
  IC50: 7.1 ± 0.9 µM
[7]
  IC50: 5.3 ± 0.2 µM
TZM-bl cells
  CC50: ~61 µM
[4]
  IC50: ~81.5 µM
[8]
  IC50: 2.5 ± 0.5 µM
[9]
  IC50: 1.7 ± 0.2 µM
[5]
  IC50: 2.5 ± 0.2 µM
[6]
  IC50: 3.9 ± 0.3 µM
